Laboratory results from patent US11472778B2, “Hepatitis C virus NS3/4A protease inhibitors” (priority 2017, dated 2022).
Read-outs that look alike come from different tables or passages of the source.

How the values were obtained:
[1] = molecular target: T1, GT1a D168A NS3/4A protease (UniProt P27958, D1194A, species not given); type: biochemical, Hepatitis C virus
T1 construct: rows headed: Ki (nM) D168A; Ki D168A; other: D168A variant
How it was run: (§1)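 Enzyme (GT1a wild type or D168A mutant, 2 nM) was preincubated with inhibitor dilutions for 1 h at room temperature in pH 7.5 Tris buffer with glycerol, DTT, LDAO and 4% DMSO.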

[2] = molecular target: GT1a D168A NS3/4A protease; type: biochemical, Hepatitis C virus; settings: fold change in Ki, D168A relative to WT
How it was run: as §1

[3] = molecular target: T2, wild-type GT1a NS3/4A protease (UniProt P27958); type: biochemical, Hepatitis C virus
T2 construct: Ki WT; other: wild-type HCV NS3/4A protease
How it was run: as §1

[4] = tested on: wild-type HCV replicon in Huh7 cells; assay: Cell-based drug susceptibility (replicon) assay, wild-type; settings: Hepatitis C virus, Huh-7, Table 9; read-out: Replicon EC50 (nM) WT
How it was run: (§2)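 Chimeric Con1/H77-NS3 luciferase replicon, electroporated into Huh7 cells and grown with rising protease inhibitor levels; luciferase read 96 h later.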

[5] = tested on: HCV replicon A156T variant in Huh7 cells; assay: microbe, parasite or virus in culture; type: cell-based, Hepatitis C virus; settings: for EC50: Hepatitis C virus, Huh-7, read-out: Replicon EC50 (nM) A156T, Table 9; for Replicon EC50 (Fold change) A156T: Table 9, relative to WT
How it was run: as §2

[6] = tested on: HCV replicon D168A variant in Huh7 cells; assay: microbe, parasite or virus in culture; type: cell-based, Hepatitis C virus; settings: for EC50: Hepatitis C virus, Huh-7, read-out: Replicon EC50 (nM) D168A, Table 9; for Replicon EC50 (Fold change) D168A: Table 9, relative to WT
How it was run: as §2

[7] = tested on: HCV replicon R155K variant in Huh7 cells; assay: microbe, parasite or virus in culture; type: cell-based, Hepatitis C virus; settings: for EC50: Hepatitis C virus, Huh-7, read-out: Replicon EC50 (nM) R155K, Table 9; for Replicon EC50 (Fold change) R155K: Table 9, relative to WT
How it was run: as §2

[8] = tested on: HCV replicon D168V variant in Huh7 cells; assay: microbe, parasite or virus in culture; type: cell-based, Hepatitis C virus; settings: for Replicon EC50 (Fold change) D168V: relative to WT
How it was run: as §2

[9] = molecular target: GT1a R155K NS3/4A protease (UniProt P27958, R1181K, species not given); type: biochemical, Hepatitis C virus
Experimental: (§3) For each assay, 2 nM of NS3/4A protease (GT1a, R155K and D168A) was pre-incubated at room temperature for 1 h with increasing concentration of inhibitors in assay buffer (50 mM Tris, 5% glycerol, 10 mM DTT, 0.6 mM LDAO, and 4% dimethyl sulfoxide, pH 7.5). Inhibition assays were performed in non-binding surface 96-well black half-area plates (Corning) in a reaction volume of 60 μL. […] Three independent data sets were collected for each inhibitor with each protease construct. […] Gibbs free energy of binding was calculated using the following equation: ΔG=RTlnKi

[10] = molecular target: GT1a R155K NS3/4A protease; type: biochemical, Hepatitis C virus; settings: fold change in Ki, R155K relative to WT
Experimental: as §3

[11] = read-out: Ki (nM) D168A, Table 8, linear inhibitors
[12] = read-out: Ki D168A, D168A variant
[13] = read-out: Ki (nM) WT, Table 8, linear inhibitors
[14] = read-out: Ki WT, wild-type HCV NS3/4A protease
[15] = Hepatitis C virus, Huh-7, read-out: Replicon EC50 (nM) D168V, Table 9
[16] = read-out: Ki (nM) R155K, Table 8, linear inhibitors
[17] = read-out: Ki R155K, R155K variant
[18] = read-out: Replicon EC50 (nM) D168V, Table 9

SMILES | Ki [1, 11] | Ki [1, 12] | Ki D168A (fold change) [2] | Ki [3, 13] | Ki [3, 14] | EC50 [4] | EC50 [5] | Replicon EC50 (Fold change) A156T [5] | EC50 [6] | Replicon EC50 (Fold change) D168A [6] | EC50 [7] | Replicon EC50 (Fold change) R155K [7] | EC50 [8, 15] | Replicon EC50 (Fold change) D168V ([8]; Table 9) | Ki [9, 16] | Ki [9, 17] | Ki R155K (fold change) [10] | EC50 [8, 18]
C=C[C@@H]1C[C@]1(NC(=O)[C@@H]1C[C@@H](Oc2nc3cc(OC)ccc3nc2CC)CN1C(=O)[C@@H](NC(=O)OC(C)(C)C)C(C)(C)C)C(=O)NS(=O)(=O)C1CC1 [Compound 3, tert-Butyl ((S)-1-((2S,4R)-2-(((1R,2S)-1-((cyclopropylsulfonyl)carbamoyl)-2-vinylcyclopropyl)carbamoyl)-4-((3-ethyl-7-methoxyquinoxalin-2-yl)oxy)pyrrolidin-1-yl)-3,3-dimethyl-1-oxobutan-2-yl)carbamate] | 642 ± 101 nM | 642 ± 101 nM | 34 | 19 nM | 19 ± 2.7 nM | 24 nM | 73 nM | (3.0) fold | > 500 nM | (>21) fold | 50 nM | (2.1) fold | > 500 nM | (>21) fold | 17 ± 2.3 nM | 17 ± 2.3 nM | 0.9 | –
C=C[C@@H]1C[C@]1(NC(=O)[C@@H]1C[C@@H](Oc2nc3cc(OC)ccc3nc2Cl)CN1C(=O)[C@@H](NC(=O)OC(C)(C)C)C(C)(C)C)C(=O)NS(=O)(=O)C1CC1 [Compound 9d, tert-Butyl ((S)-1-((2S,4R)-4-((3-chloro-7-methoxyquinoxalin-2-yl)oxy)-2-(((1R,2S)-1-((cyclopropylsulfonyl)carbamoyl)-2-vinylcyclopropyl)carbamoyl)pyrrolidin-1-yl)-3,3-dimethyl-1-oxobutan-2-yl)carbamate] | 128 ± 16 nM | 128 ± 16 nM | 16 | 7.8 ± 1.1 nM | 7.8 ± 1.1 nM | 6.6 nM | 107 nM | (16) fold | – | (5.8) fold | 10 nM | (1.5) fold | 12 to 38 nM | (1.8) fold | 2.2 ± 0.4 nM | 2.2 ± 0.4 nM | 0.3 | 12 nM
C=C[C@@H]1C[C@]1(NC(=O)[C@@H]1C[C@@H](Oc2nc3cc(OC)ccc3nc2Cl)CN1C(=O)[C@@H](NC(=O)OC(C)(C)C)C(C)(C)C)C(=O)NS(=O)(=O)C1(C)CC1 [Compound 10d, tert-Butyl ((S)-1-((2S4R)-4-((3-chloro-7-methoxyquinoxalin-2-yl)oxy)-2-(((1R,2SD)-1-(((1-methylcyclopropyl)sulfonyl)carbamoyl)-1-vinylcyclopropyl)carbamoyl)pyrrolidin-1-yl)-3,3-dimethyl-1-oxobutan-2-yl)carbamate] | 119 ± 16 nM | 119 ± 16 nM | 31 | 6.1 ± 1.1 nM | 6.1 ± 1.1 nM | 6.3 nM | 100 nM | (16) fold | – | (4.8) fold | 10 nM | (1.6) fold | 12 to 38 nM | (1.9) fold | 3.8 ± 0.6 nM | 3.8 ± 0.6 nM | 0.7 | 12 nM
C=C[C@@H]1C[C@]1(NC(=O)[C@@H]1C[C@@H](Oc2nc3cc(OC)ccc3nc2C)CN1C(=O)[C@@H](NC(=O)OC1CCCC1)C(C)(C)C)C(=O)NS(=O)(=O)C1CC1 [Compound 11b, Cyclopentyl ((S)-1-((2S,4R)-2-(((1R,2S)-1-((cyclopropylsulfonyl)carbamoyl)-2-vinylcyclopropyl)carbamoyl)-4-((7-methoxy-3-methylquinoxalin-2-yl)oxy)pyrrolidin-1-yl)-3,3-dimethyl-1-oxobutan-2-yl)carbamate] | 144 ± 23 nM | 144 ± 23 nM | 16 | 9.2 ± 0.9 nM | 9.2 ± 0.9 nM | 10 nM | 164 nM | (16) fold | 101 nM | (10) fold | 48 nM | (4.8) fold | 150 nM | (15) fold | 9.6 ± 0.9 nM | 9.6 ± 0.9 nM | 1.0 | –
C=C[C@@H]1C[C@]1(NC(=O)[C@@H]1C[C@@H](Oc2nc3cc(OC)ccc3nc2Cl)CN1C(=O)[C@@H](NC(=O)OC1CCCC1)C(C)(C)C)C(=O)NS(=O)(=O)C1CC1 [Compound 11d, Cyclopentyl ((S)-1-((2S,4R)-4-((3-chloro-7-methoxyquinoxalin-2-yl)oxy)-2-(((1R,2S)-1-((cyclopropylsulfonyl)carbamoyl)-2-vinylcyclopropyl)carbamoyl)pyrrolidin-1-yl)-3,3-dimethyl-1-oxobutan-2-yl)carbamate] | 99 ± 10 nM | 99 ± 10 nM | 26 | 3.8 nM | 3.8 ± 0.6 nM | 7.4 nM | 292 nM | (40) fold | 50 nM | (6.8) fold | 40 nM | (5.4) fold | 54 nM | (7.3) fold | 4.1 ± 0.5 nM | 4.1 ± 0.5 nM | 1.1 | –
C=C[C@@H]1C[C@]1(NC(=O)[C@@H]1C[C@@H](Oc2nc3cc(OC)ccc3nc2C(C)C)CN1C(=O)[C@@H](NC(=O)OC1CCCC1)C(C)(C)C)C(=O)NS(=O)(=O)C1(C)CC1 [Compound 12c, Cyclopentyl ((S)-1-((2S,4R)-4-((3-isopropyl-7-methoxyquinoxalin-2-yl)oxy)-2-(((1R,2S)-1-(((1-methylcyclopropyl)sulfonyl)carbamoyl)-2-vinylcyclopropyl)carbamoyl)pyrrolidin-1-yl)-3,3-dimethyl-1-oxobutan-2-yl)carbamate] | 1000 ± 80 nM | 1000 ± 80 nM | 48 | 21 ± 2.6 nM | 21 ± 2.6 nM | – | – | – | – | – | – | – | – | – | 43 ± 11 nM | 43 ± 11 nM | 2.0 | –
C=C[C@@H]1C[C@]1(NC(=O)[C@@H]1C[C@@H](Oc2nc3cc(OC)ccc3nc2C(F)(F)F)CN1C(=O)[C@@H](NC(=O)OC1CCCC1)C(C)(C)C)C(=O)NS(=O)(=O)C1(C)CC1 [Compound 12e, Cyclopentyl ((S)-1-((2S,4R)-4-((7-methoxy-3-(trifluoromethyl)quinoxalin-2-yl)oxy)-2-(((1R,2S)-1-(((1-methylcyclopropyl)sulfonyl)carbamoyl)-2-vinylcyclopropyl)carbamoyl)pyrrolidin-1-yl)-3,3-dimethyl-1-oxobutan-2-yl)carbamate] | 516 ± 61 nM | 516 ± 61 nM | 24 | 22 ± 3.4 nM | 22 ± 3.4 nM | – | – | – | – | – | – | – | – | – | 22 ± 6.9 nM | 22 ± 6.9 nM | 1.0 | –
